Values belong to the compound of their own block, whether it stands above or below them.
System: 463943-066-T-J2-PDC complex spheroid growth
Assay: Anticancer human tumor 463943-066-T-J2-PDC patient-derived colon adenocarcinoma cell line growth inhibition [Asc]
Conditions: for IC50: curve of first compound; for viability, T/C: stronger effect = lower value
Outline: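 Tumor cells were grown as complex spheroids with human endothelial cells (HUVEC) and human mesenchymal stem cells as stroma. Agents were tested alone and in combination, in half-log steps down from the clinical Cmax, or from 10 microM where Cmax was unknown.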
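Further: compound exposure lasted 7 days.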
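Wherever viability, T/C is given: 100% = DMSO vehicle control wells.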

IC50 (second compound 0.00949 µM): > 10 µM
IC50 (second compound 0.03 µM): > 10 µM
IC50 (second compound 0.0949 µM): > 10 µM
IC50 (second compound 0.3 µM): > 10 µM
IC50 (second compound 0.949 µM): > 10 µM
IC50 (second compound 3 µM): > 10 µM
Structure (SMILES): C#Cc1c(F)ccc2cc(O)cc(-c3ncc4c(N5CC6CCC(C5)N6)nc(OCC56CCCN5CC(F)C6)nc4c3F)c12 (stereo unspecified) + CCN1C(C(=O)NC23CCC(C(=O)O)(CC2)CC3)C(c2cccc(Cl)c2F)C2(C(=O)Nc3cc(Cl)ccc32)C12CCCCC2
viability, T/C (second compound 0.00949 µM, first compound 0.0316 µM): 94.4%
viability, T/C (second compound 0.00949 µM, first compound 0.1 µM): 99.3%
viability, T/C (second compound 0.00949 µM, first compound 0.316 µM): 94.3%
viability, T/C (second compound 0.00949 µM, first compound 1 µM): 101%
viability, T/C (second compound 0.00949 µM, first compound 3.16 µM): 108%
viability, T/C (second compound 0.00949 µM, first compound 10 µM): 88.3%
viability, T/C (second compound 0.03 µM, first compound 0.0316 µM): 102%
viability, T/C (second compound 0.03 µM, first compound 0.1 µM): 90.5%
viability, T/C (second compound 0.03 µM, first compound 0.316 µM): 94.1%
viability, T/C (second compound 0.03 µM, first compound 1 µM): 101%
viability, T/C (second compound 0.03 µM, first compound 3.16 µM): 103%
viability, T/C (second compound 0.03 µM, first compound 10 µM): 82.5%
viability, T/C (second compound 0.0949 µM, first compound 0.0316 µM): 91.5%
viability, T/C (second compound 0.0949 µM, first compound 0.1 µM): 88.8%
viability, T/C (second compound 0.0949 µM, first compound 0.316 µM): 94.2%
viability, T/C (second compound 0.0949 µM, first compound 1 µM): 93%
viability, T/C (second compound 0.0949 µM, first compound 3.16 µM): 91.7%
viability, T/C (second compound 0.0949 µM, first compound 10 µM): 94.1%
viability, T/C (second compound 0.3 µM, first compound 0.0316 µM): 88.4%
viability, T/C (second compound 0.3 µM, first compound 0.1 µM): 81.6%
viability, T/C (second compound 0.3 µM, first compound 0.316 µM): 87%
viability, T/C (second compound 0.3 µM, first compound 1 µM): 83%
viability, T/C (second compound 0.3 µM, first compound 3.16 µM): 83.1%
viability, T/C (second compound 0.3 µM, first compound 10 µM): 85.4%
viability, T/C (second compound 0.949 µM, first compound 0.0316 µM): 74%
viability, T/C (second compound 0.949 µM, first compound 0.1 µM): 73%
viability, T/C (second compound 0.949 µM, first compound 0.316 µM): 78.8%
viability, T/C (second compound 0.949 µM, first compound 1 µM): 77.9%
viability, T/C (second compound 0.949 µM, first compound 3.16 µM): 75.3%
viability, T/C (second compound 0.949 µM, first compound 10 µM): 71.2%
viability, T/C (second compound 3 µM, first compound 0.0316 µM): 70%
viability, T/C (second compound 3 µM, first compound 0.1 µM): 71.8%
viability, T/C (second compound 3 µM, first compound 0.316 µM): 70.5%
viability, T/C (second compound 3 µM, first compound 1 µM): 73.3%
viability, T/C (second compound 3 µM, first compound 3.16 µM): 72.1%
viability, T/C (second compound 3 µM, first compound 10 µM): 67.6%

IC50 (second compound 0.00316 µM): 0.125 µM
IC50 (second compound 0.01 µM): 0.343 µM
IC50 (second compound 0.0316 µM): 0.304 µM
IC50 (second compound 0.1 µM): 0.173 µM
IC50 (second compound 0.316 µM): 0.229 µM
IC50 (second compound 1 µM): 0.238 µM
Structure (SMILES): O=C(c1ccc(F)c(F)c1Nc1ccc(I)cc1F)N1CC(O)([C@@H]2CCCCN2)C1 + CNC(C)C(=O)NC1CN(S(=O)(=O)c2cccc(S(=O)(=O)N3CCC4CCC(C(=O)NC(c5ccccc5)c5ccccc5)N4C(=O)C(NC(=O)C(C)NC)C3)c2)CCC2CCC(C(=O)NC(c3ccccc3)c3ccccc3)N2C1=O
viability, T/C (second compound 0.00316 µM, first compound 0.00316 µM): 88.3%
viability, T/C (second compound 0.00316 µM, first compound 0.01 µM): 76.9%
viability, T/C (second compound 0.00316 µM, first compound 0.0316 µM): 59.4%
viability, T/C (second compound 0.00316 µM, first compound 0.1 µM): 58.4%
viability, T/C (second compound 0.00316 µM, first compound 0.316 µM): 40.4%
viability, T/C (second compound 0.00316 µM, first compound 1 µM): 20.8%
viability, T/C (second compound 0.01 µM, first compound 0.00316 µM): 94.6%
viability, T/C (second compound 0.01 µM, first compound 0.01 µM): 88.3%
viability, T/C (second compound 0.01 µM, first compound 0.0316 µM): 71.8%
viability, T/C (second compound 0.01 µM, first compound 0.1 µM): 65.9%
viability, T/C (second compound 0.01 µM, first compound 0.316 µM): 51.3%
viability, T/C (second compound 0.01 µM, first compound 1 µM): 36.9%
viability, T/C (second compound 0.0316 µM, first compound 0.00316 µM): 102%
viability, T/C (second compound 0.0316 µM, first compound 0.01 µM): 81.6%
viability, T/C (second compound 0.0316 µM, first compound 0.0316 µM): 69%
viability, T/C (second compound 0.0316 µM, first compound 0.1 µM): 67.2%
viability, T/C (second compound 0.0316 µM, first compound 0.316 µM): 55%
viability, T/C (second compound 0.0316 µM, first compound 1 µM): 32.6%
viability, T/C (second compound 0.1 µM, first compound 0.00316 µM): 85.1%
viability, T/C (second compound 0.1 µM, first compound 0.01 µM): 82.9%
viability, T/C (second compound 0.1 µM, first compound 0.0316 µM): 64.4%
viability, T/C (second compound 0.1 µM, first compound 0.1 µM): 56%
viability, T/C (second compound 0.1 µM, first compound 0.316 µM): 46.8%
viability, T/C (second compound 0.1 µM, first compound 1 µM): 24.7%
viability, T/C (second compound 0.316 µM, first compound 0.00316 µM): 91.1%
viability, T/C (second compound 0.316 µM, first compound 0.01 µM): 79.2%
viability, T/C (second compound 0.316 µM, first compound 0.0316 µM): 66.5%
viability, T/C (second compound 0.316 µM, first compound 0.1 µM): 60%
viability, T/C (second compound 0.316 µM, first compound 0.316 µM): 49.9%
viability, T/C (second compound 0.316 µM, first compound 1 µM): 31.8%
viability, T/C (second compound 1 µM, first compound 0.00316 µM): 82%
viability, T/C (second compound 1 µM, first compound 0.01 µM): 68.1%
viability, T/C (second compound 1 µM, first compound 0.0316 µM): 66.3%
viability, T/C (second compound 1 µM, first compound 0.1 µM): 61.4%
viability, T/C (second compound 1 µM, first compound 0.316 µM): 47.4%
viability, T/C (second compound 1 µM, first compound 1 µM): 33.4%

IC50 (second compound 0.0316 µM): > 3 µM
IC50 (second compound 0.1 µM): > 3 µM
IC50 (second compound 0.316 µM): > 3 µM
IC50 (second compound 1 µM): > 3 µM
IC50 (second compound 3.16 µM): 0.14 µM
IC50 (second compound 10 µM): < 0.00949 µM
Structure (SMILES): CCN1C(C(=O)NC23CCC(C(=O)O)(CC2)CC3)C(c2cccc(Cl)c2F)C2(C(=O)Nc3cc(Cl)ccc32)C12CCCCC2 (stereo unspecified) + Cc1c(S(C)(=O)=O)c(-c2cc(F)cc(N3CCN(c4ccc(NS(=O)(=O)c5ccc(NC(CCN6CCC(C(=O)OCCCP(=O)(O)O)CC6)CSc6ccccc6)c(S(=O)(=O)C(F)(F)F)c5)cc4)CC3)c2)c(-c2ccc(Cl)cc2)n1C(C)C
viability, T/C (second compound 0.0316 µM, first compound 0.00949 µM): 90.4%
viability, T/C (second compound 0.0316 µM, first compound 0.03 µM): 92.3%
viability, T/C (second compound 0.0316 µM, first compound 0.0949 µM): 89.3%
viability, T/C (second compound 0.0316 µM, first compound 0.3 µM): 76.5%
viability, T/C (second compound 0.0316 µM, first compound 0.949 µM): 70.2%
viability, T/C (second compound 0.0316 µM, first compound 3 µM): 61.8%
viability, T/C (second compound 0.1 µM, first compound 0.00949 µM): 88.9%
viability, T/C (second compound 0.1 µM, first compound 0.03 µM): 83.2%
viability, T/C (second compound 0.1 µM, first compound 0.0949 µM): 85.9%
viability, T/C (second compound 0.1 µM, first compound 0.3 µM): 73.3%
viability, T/C (second compound 0.1 µM, first compound 0.949 µM): 71.1%
viability, T/C (second compound 0.1 µM, first compound 3 µM): 60.8%
viability, T/C (second compound 0.316 µM, first compound 0.00949 µM): 80.6%
viability, T/C (second compound 0.316 µM, first compound 0.03 µM): 92.2%
viability, T/C (second compound 0.316 µM, first compound 0.0949 µM): 77.6%
viability, T/C (second compound 0.316 µM, first compound 0.3 µM): 71.4%
viability, T/C (second compound 0.316 µM, first compound 0.949 µM): 64.7%
viability, T/C (second compound 0.316 µM, first compound 3 µM): 57.2%
viability, T/C (second compound 1 µM, first compound 0.00949 µM): 70.1%
viability, T/C (second compound 1 µM, first compound 0.03 µM): 70.8%
viability, T/C (second compound 1 µM, first compound 0.0949 µM): 62.9%
viability, T/C (second compound 1 µM, first compound 0.3 µM): 58.4%
viability, T/C (second compound 1 µM, first compound 0.949 µM): 62%
viability, T/C (second compound 1 µM, first compound 3 µM): 51.2%
viability, T/C (second compound 3.16 µM, first compound 0.00949 µM): 55.8%
viability, T/C (second compound 3.16 µM, first compound 0.03 µM): 54.5%
viability, T/C (second compound 3.16 µM, first compound 0.0949 µM): 49.3%
viability, T/C (second compound 3.16 µM, first compound 0.3 µM): 48.2%
viability, T/C (second compound 3.16 µM, first compound 0.949 µM): 45.5%
viability, T/C (second compound 3.16 µM, first compound 3 µM): 39.4%
viability, T/C (second compound 10 µM, first compound 0.00949 µM): 46.7%
viability, T/C (second compound 10 µM, first compound 0.03 µM): 43.7%
viability, T/C (second compound 10 µM, first compound 0.0949 µM): 39.8%
viability, T/C (second compound 10 µM, first compound 0.3 µM): 34.8%
viability, T/C (second compound 10 µM, first compound 0.949 µM): 61.4%
viability, T/C (second compound 10 µM, first compound 3 µM): 34.5%

Reference: PubChem BioAssay AID1963422 (Molecular Pharmacology Branch, DTP, NCI, 2024)
